Experimental data from US7625897B2, “Non-nucleoside reverse transcriptase inhibitors” (Roche Palo Alto LLC, priority 2005, dated 2009).
Read-outs that look alike come from different tables or passages of the source.

Key:
HIV-1 RT = HIV-1 RT (Human immunodeficiency virus type 1 group M subtype B, UniProt P03366); experiment: HIV Reverse Transcriptase Assay: Inhibitor IC50 determination; format: biochemical; conditions: purified recombinant enzyme, poly(rA)/oligo(dT)16 template-primer, read-out: HIV-RT IC50 RT
Protocol: HIV Reverse Transcriptase Assay: Inhibitor IC50 determination
HIV-1 RT assay was carried out in 96-well Millipore MultiScreen MADVNOB50 plates using purified recombinant enzyme and a poly(rA)/oligo(dT)16 template-primer in a total volume of 50 μL. The assay constituents were 50 mM Tris/HCl, 50 mM NaCl, 1 mM EDTA, 6 mM MgCl2, 5 μM dTTP, 0.15 μCi [^3H] dTTP, 5 μg/ml poly (rA) pre annealed to 2.5 μg/ml oligo (dT)16 and a range of inhibitor concentrations in a final concentration of 10% DMSO. Reactions were initiated by adding 4 nM HIV-1 RT and after incubation at 37° C. for 30 min, they were stopped by the addition of 50 μl ice cold 20% TCA and allowed to precipitate at 4° C. for 30 min. The precipitates were collected by applying vacuum to the plate and sequentially washing with 3×200 μl of 10% TCA and 2×200 μl 70% ethanol. Finally, the plates were dried and radioactivity counted in a Packard TopCounter after the addition of 25 μl scintillation fluid per well. IC50's were calculated by plotting % inhibition versus log10 inhibitor concentrations.

Row | SMILES | IC50 (HIV-1 RT; TABLE I) [nM] | melting point [°C] | IC50 (HIV-1 RT; TABLE II) [nM]
1 | N#Cc1cc(Cl)cc(Oc2c(Cl)ccc(CC3=NNC(=O)[C@@H](CO)N3)c2F)c1 [Compound I-30] | 418 | 112.5 to 114 | –
2 | O=C1CCC(Cc2ccc(Cl)c(Oc3ccccc3)c2)=NN1 [Compound I-24, 6-(4-Chloro-3-phenoxy-benzyl)-4,5-dihydro-2H-pyridazin-3-one] | 2630 | – | –
3 | CC1OC(Cc2ccc(Cl)c(Oc3cc(Cl)cc(C#N)c3)c2F)=NNC1=O (stereo not shown) [Compound I-8, 3-Chloro-5-[6-chloro-2-fluoro-3-(6-methyl-5-oxo-5,6-dihydro-4H-[1,3,4]oxadiazin-2-ylmethyl)-phenoxy]-benzonitrile] | 13.6 | – | –
4 | C[C@@H]1NC(Cc2ccc(Cl)c(Oc3cccc(Br)c3)c2)=NNC1=O [Compound I-1, (S)-3-[3-(3-Bromo-phenoxy)-4-chloro-benzyl]-5-methyl-4,5-dihydro-1H-[1,2,4]triazin-6-one] | 4520 | – | –
5 | N#Cc1cc(Cl)cc(Oc2c(Cl)ccc(CC3=NNC(=O)CN3)c2F)c1 [Compound I-28] | 143 | 177.6 to 178 | –
6 | C[C@@H]1NC(Cc2ccc(Cl)c(Oc3cc(Br)cc(Br)c3)c2F)=NNC1=O [Compound I-2, (S)-3-[4-Chloro-3-(3,5-dibromo-phenoxy)-2-fluoro-benzyl]-5-methyl4,5-dihydro-1H-[1,2,4]triazin-6-one] | 165 | 88 to 91.5 | –
7 | CC1OC(Cc2ccc(Cl)c(Oc3cc(Br)cc(Br)c3)c2F)=NNC1=O (stereo not shown) [Compound I-7, 2-[4-Chloro-3-(3,5-dibromo-phenoxy)-2-fluoro-benzyl]-6-methyl-4H-[1,3,4]oxadiazin-5-one] | 24.5 | 174.2 to 176.1 | –
8 | Cc1nc(Cc2ccc(Cl)c(Oc3cccc(C#N)c3)c2)n[nH]c1=O [II-2, 3-[2-Chloro-5-(5-methyl-6-oxo-1,6-dihydro-[1,2,4]triazin-3-ylmethyl)-phenoxy]-benzonitrile] | – | 145.3 to 145.8 | 206
9 | CC[C@H]1NC(Cc2ccc(Cl)c(Oc3cc(Cl)cc(C#N)c3)c2F)=NNC1=O [Compound I-17, 3-Chloro-5-[6-chloro-3-((R)-5-ethyl-6-oxo-1,4,5,6-tetrahydro-[1,2,4]triazin-3-ylmethyl)-2-fluoro-phenoxy]-benzonitrile] | 13 | – | –
10 | C[C@H]1NC(Cc2ccc(Br)c(Oc3cc(C#N)cc(C(F)F)c3)c2F)=NNC1=O [Compound I-25, 3-[6-Bromo-2-fluoro-3-((R)-5-methyl-6-oxo-1,4,5,6-tetrahydro-[1,2,4]triazin-3-ylmethyl)-phenoxy]-5-difluoromethyl-benzonitrile] | 11.7 | 231.5 to 233 | –
11 | C[C@H]1NC(Cc2ccc(Br)c(Oc3cc(Cl)cc(C#N)c3)c2F)=NNC1=O [Compound I-26] | 6.6 | 178.2 to 179 | –
12 | C[C@H]1NC(Cc2ccc(Cl)c(Oc3cc(C#N)cc(C(F)F)c3)c2F)=NNC1=O [Compound I-16, 3-[6-Chloro-2-fluoro-3-((R)-5-methyl-6-oxo-1,4,5,6-tetrahydro-[1,2,4]triazin-3-ylmethyl)-phenoxy]-5-difluoromethyl-benzonitrile] | 15.3 | – | –
13 | C[C@@H]1NC(Cc2ccc(Cl)c(Oc3cc(Cl)cc(C#N)c3)c2F)=NNC1=O [Compound I-18, 3-Chloro-5-[6-chloro-2-fluoro-3-(5-methyl-6-oxo-1,4,5,6-tetrahydro-[1,2,4]triazin-3-ylmethyl)-phenoxy]-benzonitrile] | 11.9 | – | –
14 | CCC1OC(Cc2ccc(Cl)c(Oc3cccc(Br)c3)c2)=NNC1=O (stereo not shown) [Compound I-12, 2-[3-(3-Bromo-phenoxy)-4-chloro-benzyl]-6-ethyl-4H-[1,3,4]oxadiazin-5-one] | 212 | – | –
15 | Cc1nc(Cc2ccc(Cl)c(Oc3cc(Br)cc(C#N)c3)c2F)n[nH]c1=O [II-6, 3-Bromo-5-[6-chloro-2-fluoro-3-(5-methyl-6-oxo-1,6-dihydro-[1,2,4]triazin-3-ylmethyl)-phenoxy]-benzonitrile] | – | – | 32.5
16 | C[C@H]1CC(Cc2ccc(Cl)c(Oc3cccc(C#N)c3)c2)=NNC1=O [Compound I-21, 3-[2-chloro-5-((S)-5-methyl-6-oxo-1,4,5,6-tetrahydro-pyridazin-3-ylmethyl)-phenoxy]-benzonitrile] | 46.9 | – | –
17 | CC1(C)OC(Cc2ccc(Cl)c(Oc3cccc(C#N)c3)c2)=NNC1=O [Compound I-13, 3-[2-Chloro-5-(6,6-dimethyl-5-oxo-5,6-dihydro-4H-[1,3,4]oxadiazin-2-ylmethyl)-phenoxy]-benzonitrile] | 9490 | 94.1 to 95.3 | –
18 | CCC1OC(Cc2ccc(Cl)c(Oc3cccc(C#N)c3)c2)=NNC1=O (stereo not shown) [Compound I-14, 3-[2-Chloro-5-(6-ethyl-5-oxo-5,6-dihydro4H-[1,3,4]oxadiazin-2-ylmethyl)-phenoxy]-benzonitrile] | 128 | – | –
19 | C[C@H]1CC(Cc2ccc(Cl)c(Oc3cccc(Br)c3)c2)=NNC1=O [Compound I-20, (S)-6-[3-(3-Bromo-phenoxy)4-chloro-benzyl]-4-methyl-4,5-dihydro-2H-pyridazin-3-one] | 65.4 | – | –
20 | N#Cc1cc(Cl)cc(Oc2c(Cl)ccc(CC3=NNC(=O)C(C(F)(F)F)N3)c2F)c1 (stereo not shown) [Compound I-29] | 26.9 | – | –
21 | O=C1NN=C(Cc2ccc(Cl)c(Oc3cc(Br)cc(Br)c3)c2F)NC12CC2 [Compound I-10, 5-[4-Chloro-3-(3,5-dibromo-phenoxy)-2-fluoro-benzyl]-4,6,7-triaza-spiro[2.5]oct-5-en-8-one] | 66 | 90 to 95 | –
22 | CC1(C)NC(Cc2ccc(Cl)c(Oc3cc(Cl)cc(C#N)c3)c2F)=NNC1=O [Compound I-27] | 7070 | – | –
23 | CC1(C)OC(Cc2ccc(Cl)c(Oc3cccc(Br)c3)c2)=NNC1=O [Compound I-11, 2-[3-(3-Bromo-phenoxy)4-chloro-benzyl]-6,6-dimethyl-4H-[1,3,4]oxadiazin-5-one] | > 10000 | – | –
24 | CC1OC(Cc2ccc(Cl)c(Oc3cc(Cl)cc(Br)c3)c2F)=NNC1=O (stereo not shown) [Compound I-6, 2-[3-(3-Bromo-5-chloro-phenoxy)-4-chloro-2-fluoro-benzyl]-6-methyl-4H-[1,3,4]oxadiazin-5-one] | 24.7 | – | –
25 | CC1CC(Cc2ccc(Cl)c(Oc3cc(Cl)cc(Br)c3)c2F)=NNC1=O (stereo in doubt) [Compound I-23, (S)-6-[3-(3-Bromo-5-chloro-phenoxy)-4-chloro-2-fluoro-benzyl]-4-methyl-4,5-dihydro-2H-pyridazin-3-one] | 14.3 | 148.2 to 151 | –
26 | Cc1nc(Cc2ccc(Cl)c(Oc3cc(Br)cc(Br)c3)c2F)n[nH]c1=O [II-4, 3-[4-Chloro-3-(3,5-dibromo-phenoxy)-2-fluoro-benzyl]-5-methyl-1H-[1,2,4]triazin-6-one] | – | 180.9 to 183.3 | 137
27 | Cc1ccc(CC2=NNC(=O)[C@@H](C)N2)c(F)c1Oc1cc(C#N)cc(C(F)F)c1 [Compound I-19, 3-Difluoromethyl-5-[2-fluoro-6-methyl-3-((R)-5-methyl-6-oxo-1,4,5,6-tetrahydro-[1,2,4]triazin-3-ylmethyl)-phenoxy]-benzonitrile] | 18 | – | –
28 | CC1OC(Cc2ccc(Cl)c(Oc3cccc(Br)c3)c2)=NNC1=O (stereo not shown) [Compound I-4, 2-[3-(3-Bromo-phenoxy)-4-chloro-benzyl]-6-methyl-4H-[1,3,4]oxadiazin-5-one] | 51.5 | – | –
29 | Cc1nc(Cc2ccc(Cl)c(Oc3cccc(Br)c3)c2)n[nH]c1=O [II-1] | – | – | 331
